Test results as given in publication PMC2858921 (Toxicology and applied pharmacology, 2008).
Entries after “also recorded” stand apart in the source; their conditions may differ. Like-named read-outs stand apart in the source and are kept apart here. Marks after values point to notes of the source that are not given here.

Key:
[1] = olfactory tissues
AChE = conditions: read-out: IC50 (AChE inhibition); ref Gadepalli et al., 2007; cited from earlier work
[2] = Fenthion, fenoxon and fenthion sulfoxide metabolism in liver microsomes; conditions: for R-fenoxon sulfoxide formation / S-fenoxon sulfoxide formation: liver, substrate 100 μM; for Vmax, Fenoxon formation / Vmax, MMTP (NADPH-dependent) formation / Vmax, MMTP (NADPH-independent) formation / Vmax, R-fenthion sulfoxide formation / Vmax, S-fenthion sulfoxide formation / Vmax, R-fenoxon sulfoxide formation / Vmax, S-fenoxon sulfoxide formation: liver microsomes incubated with fenthion
[3] = Fenthion, fenoxon and fenthion sulfoxide metabolism in gill microsomes; conditions: gills, substrate 100 μM, bdl: <0.3
recombinant human FMO1 = target: T1, recombinant human FMO1 (Homo sapiens, UniProt Q01740); experiment: Biotransformation by recombinant human FMO1; conditions: fenthion sulfoxide as substrate
T1 sequence (Q01740 1-532): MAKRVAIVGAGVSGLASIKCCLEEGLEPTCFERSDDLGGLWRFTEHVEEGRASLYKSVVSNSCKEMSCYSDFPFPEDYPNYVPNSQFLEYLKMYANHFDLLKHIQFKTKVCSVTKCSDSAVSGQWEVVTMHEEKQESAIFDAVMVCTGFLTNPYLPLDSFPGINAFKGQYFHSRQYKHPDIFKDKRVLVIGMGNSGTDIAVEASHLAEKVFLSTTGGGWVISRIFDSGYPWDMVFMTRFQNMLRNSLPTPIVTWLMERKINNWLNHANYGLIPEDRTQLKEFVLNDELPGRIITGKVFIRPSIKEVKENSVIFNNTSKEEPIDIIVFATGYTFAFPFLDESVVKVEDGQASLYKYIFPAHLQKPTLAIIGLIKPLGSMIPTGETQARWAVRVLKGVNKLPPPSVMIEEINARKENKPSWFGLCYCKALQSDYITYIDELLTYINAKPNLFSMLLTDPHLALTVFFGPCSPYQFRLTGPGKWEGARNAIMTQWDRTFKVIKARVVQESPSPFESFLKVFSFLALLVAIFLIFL

[4] = TEPP inhibition of MMTP formation from fenthion, liver microsomes; type: biochemical, rainbow trout (Oncorhynchus mykiss); conditions: freshwater-acclimated
[5] = TEPP inhibition of MMTP formation from fenthion, gill microsomes; type: biochemical, rainbow trout (Oncorhynchus mykiss); conditions: Gills, freshwater-acclimated
[6] = TEPP inhibition of MMTP formation from fenthion, olfactory tissue microsomes; type: biochemical, rainbow trout (Oncorhynchus mykiss); conditions: freshwater-acclimated
FMO3 = conditions: ref Furnes and Schlenk, 2003, 2004; cited from earlier work
[7] = Cleavage in cytosolic incubations; conditions: data not shown
CYP = conditions: for reduction of fenoxon formation: liver microsomes, ketoconazole 500 μM; for Fenoxon formation from fenthion / MMTP (NADPH-dependent) formation from fenthion / MMTP (NADPH-independent) formation from fenthion / R-Fenthion sulfoxide formation from fenthion / S-Fenthion sulfoxide formation from fenthion: liver, NADPH+ ketoconazole (500 μM)+ fenthion
[8] = system: testosterone hydroxylase (CYP3A27-related); experiment: [14C]Testosterone hydroxylase activity in liver microsomes; conditions: Ketoconazole 500 μM; below detection; data not shown
[9] = Table 1, freshwater-acclimated, substrate 100 μM, bdl: <0.3
[10] = Table 1, freshwater-acclimated, bdl: <0.3

## COP(=S)(OC)Oc1ccc([S@@+](C)[O-])c(C)c1 [R-fenthion sulfoxide]
[1]; [9]
  R-fenoxon sulfoxide formation: bdl
AChE
  IC50: > 1000 µM
[2]; [10]
  R-fenoxon sulfoxide formation: 5.2±1.1 pmol/min/mg protein
[2]; Table 3, Freshwater, bdl: <0.3
  R-fenoxon sulfoxide formation: 5.2±1.1 pmol/min/mg protein
[2]; Table 3, Hypersaline
  R-fenoxon sulfoxide formation: 9.2±0.3 pmol/min/mg protein
[3]; Table 1, freshwater-acclimated
  R-fenoxon sulfoxide formation: 2.9±0.1 pmol/min/mg protein
[3]; Table 4, Freshwater
  R-fenoxon sulfoxide formation: 2.9±0.1 pmol/min/mg protein

## COP(=S)(OC)Oc1ccc([S+](C)[O-])c(C)c1 (centres unmarked) [S-fenthion sulfoxide]
[1]; [9]
  S-fenoxon sulfoxide formation: bdl
[2]; [10]
  S-fenoxon sulfoxide formation: 6.1±0.2 pmol/min/mg protein
[2]; Table 3, Freshwater, bdl: <0.3
  S-fenoxon sulfoxide formation: 6.1±0.2 pmol/min/mg protein
[2]; Table 3, Hypersaline
  S-fenoxon sulfoxide formation: 12.2±3.2 pmol/min/mg protein
[3]; Table 1, freshwater-acclimated
  S-fenoxon sulfoxide formation: 2.3±0.2 pmol/min/mg protein
[3]; Table 4, Freshwater
  S-fenoxon sulfoxide formation: 2.1±0.1 pmol/min/mg protein

## COP(=S)(OC)Oc1ccc([S+](C)[O-])c(C)c1 (centres unmarked) [fenthion sulfoxide]
Recombinant human FMO1
  Fenoxon sulfoxides production: not produced

## CCOP(=O)(OCC)OP(=O)(OCC)OCC [TEPP, tetraethylpyrophosphate]
[4]; 100 μM TEPP
  MMTP Formation from fenthion, NADPH-dependent: 138.4±10.3^a pmol/min/mg protein
[4]; 500 μM TEPP
  MMTP Formation from fenthion, NADPH-dependent: 65.4±11.1^b pmol/min/mg protein
[4]; 500 μM TEPP, bdl: <0.3
  MMTP Formation from fenthion, NADPH-independent: bdl^b
[4]; 1000 μM TEPP, bdl: <0.3
  MMTP Formation from fenthion, NADPH-dependent: below detection; also recorded: bdl^c
  MMTP Formation from fenthion, NADPH-independent: bdl^b
[5]; 100 μM TEPP
  MMTP Formation from fenthion, NADPH-dependent: 105.3±8.9^a pmol/min/mg protein
[5]; 500 μM TEPP
  MMTP Formation from fenthion, NADPH-dependent: 74.3±10.1^b pmol/min/mg protein
[5]; 500 μM TEPP, bdl: <0.3
  MMTP Formation from fenthion, NADPH-independent: bdl^b
[5]; 1000 μM TEPP, bdl: <0.3
  MMTP Formation from fenthion, NADPH-dependent: below detection; also recorded: bdl^c
  MMTP Formation from fenthion, NADPH-independent: bdl^b
[6]; 100 μM TEPP
  MMTP Formation from fenthion, NADPH-dependent: 254.3±18.1^a pmol/min/mg protein
[6]; 500 μM TEPP
  MMTP Formation from fenthion, NADPH-dependent: 100.2±13.3^b pmol/min/mg protein
[6]; 500 μM TEPP, bdl: <0.3
  MMTP Formation from fenthion, NADPH-independent: bdl^b
[6]; 1000 μM TEPP, bdl: <0.3
  MMTP Formation from fenthion, NADPH-dependent: below detection; also recorded: bdl^c
  MMTP Formation from fenthion, NADPH-independent: bdl^b

## COP(=S)(OC)Oc1ccc(SC)c(C)c1 [Fenthion, O,O-dimethyl-O-(4-methylmlercapto)-3-methylphenylthio-phosphate]
[1]; [9]
  Fenoxon formation: bdl
  R-fenoxon sulfoxide formation: bdl
  R-fenthion sulfoxide formation: bdl
  S-fenoxon sulfoxide formation: bdl
  S-fenthion sulfoxide formation: bdl
[1]; HA fish, data not shown
  sulfoxidation: not detected
FMO3
  S-sulfoxide excess formed: 75%
[7]
  NADPH-independent or dependent cleavage: not observed
[2]; Freshwater
  Vmax, Fenoxon formation: 82.8±4.6 pmol/min/mg protein
  Vmax, MMTP (NADPH-dependent) formation: 199.2±24.4 pmol/min/mg protein
  Vmax, MMTP (NADPH-independent) formation: 53.7±4.8 pmol/min/mg protein
  Vmax, R-fenthion sulfoxide formation: 78.6±5.2 pmol/min/mg protein
  Vmax, S-fenthion sulfoxide formation: 173.4±9.6 pmol/min/mg protein
[2]; Freshwater, bdl: <0.3
  Vmax, R-fenoxon sulfoxide formation: bdl
  Vmax, S-fenoxon sulfoxide formation: bdl
[2]; Hypersaline
  Vmax, Fenoxon formation: 130.0±6.1 pmol/min/mg protein
  Vmax, MMTP (NADPH-dependent) formation: 35.1±1.9 pmol/min/mg protein
  Vmax, MMTP (NADPH-independent) formation: 59.8±10.5 pmol/min/mg protein
  Vmax, R-fenoxon sulfoxide formation: 7.7±0.6 pmol/min/mg protein
  Vmax, R-fenthion sulfoxide formation: 201.1±11.9 pmol/min/mg protein
  Vmax, S-fenoxon sulfoxide formation: 18.4±1.1 pmol/min/mg protein
  Vmax, S-fenthion sulfoxide formation: 355.7±9.4 pmol/min/mg protein
[2]; [10]
  R-fenoxon sulfoxide formation: bdl
  S-fenoxon sulfoxide formation: bdl
[2]; Table 3, Freshwater, bdl: <0.3
  R-fenoxon sulfoxide formation: bdl
  S-fenoxon sulfoxide formation: bdl
[2]; liver microsomes, HA fish
  efficiency of R-sulfoxide formation relative to fenoxon: 2 fold
  efficiency of S-sulfoxide formation relative to R-sulfoxide: approximately 3 fold
[3]; Table 1, freshwater-acclimated
  R-fenoxon sulfoxide formation: bdl
  S-fenoxon sulfoxide formation: bdl
[3]; Table 4, Freshwater
  R-fenoxon sulfoxide formation: bdl
  S-fenoxon sulfoxide formation: bdl
[3]; Table 4, Hypersaline
  R-fenoxon sulfoxide formation: bdl
  S-fenoxon sulfoxide formation: bdl

## CC(=O)N1CCN(c2ccc(OCC3COC(Cn4ccnc4)(c4ccc(Cl)cc4Cl)O3)cc2)CC1 (centres unmarked) [ketoconazole]
CYP; liver microsomes from HA fish, co-incubation
  fenoxon sulfoxide formation with inhibitor: below detection
CYP; FA fish
  reduction of fenoxon formation: 67%
CYP; HA fish
  reduction of fenoxon formation: 60%
CYP; Freshwater
  Fenoxon formation from fenthion: 6.9±1.3 pmol/min/mg protein
  MMTP (NADPH-dependent) formation from fenthion: 121.2±15.3 pmol/min/mg protein
  MMTP (NADPH-independent) formation from fenthion: 5.3±2.1 pmol/min/mg protein
  R-Fenthion sulfoxide formation from fenthion: 16.7±1.7 pmol/min/mg protein
  S-Fenthion sulfoxide formation from fenthion: 33.7±2.7 pmol/min/mg protein
CYP; Hypersaline
  Fenoxon formation from fenthion: 16.8±2.4 pmol/min/mg protein
  MMTP (NADPH-dependent) formation from fenthion: 13.2±4.5 pmol/min/mg protein
  MMTP (NADPH-independent) formation from fenthion: 4.5±1.1 pmol/min/mg protein
  R-Fenthion sulfoxide formation from fenthion: 83.4±8.4 pmol/min/mg protein
  S-Fenthion sulfoxide formation from fenthion: 168.4±13.2 pmol/min/mg protein
[8]
  testosterone hydroxylase activity with inhibitor: < 0.2 pmol/min/mg protein
